From US20210380547A1, “UREA DERIVATIVES FOR TREATING AND/OR PREVENTING CANCER” (CENTRE NATIONAL DE LA RECHERCHE SCIENTIFIQUE, priority 2018, published 2021)
Like-named read-outs stand apart in the source and are kept apart here.

Assays:
MolM13 = assay: XTT cell viability assay, MolM13; format: cell-based, human; settings: Homo sapiens, MOLM-13; XTT assay (48 h); standard deviation of 10%; read-out: EC50 (μM) AML MolM13
Procedure: (§1) Fifty microliters of sodium 3′-[1-phenylaminocarbonyl)-3,4-tetrazolium]-bis(4-methoxy-6-nitro) benzene sulfonic acid hydrate (XTT) reagent was added to each well. The assay is based on the cleavage of the yellow tetrazolium salt XTT to form an orange formazan dye by metabolically active cells. The absorbance of the formazan product, reflecting cell viability, was measured at 490 nm. Each assay was performed in quadruplicate.
(§2) Compounds #1-#14 have been assayed as potential anti-proliferative agents against a panel of human breast head and neck, and kidney tumor cells and hematological malignancies, selected on the basis of their aggressiveness (e.g. incurable triple-negative breast cancer cells: MDA-MB-231; kidney ccRCC cells: RCC4, A498 and 786-O and 786R; head and neck cancer cells: CAL33, CAL33RR, CAL27, and CAL27RR; acute myeloid cell lines: OCI-AML2, OCI-AML3, MolM13, and MolM14; myelodysplastic cell line: SM1; and chronic myeloid cell line: CML). All these cell lines share as common denominator the expression of CXCR1 and CXCR2. The EC50 values have been measured by a XTT colorimetric assay, and compared to those of SB-225002, used as a reference; the results are listed in Table 1.

K562 = assay: XTT cell viability assay, K562; format: cell-based, human; settings: Homo sapiens, K562; XTT assay (48 h); standard deviation of 10%; read-out: EC50 (μM) CML K562
Procedure: as §1, §2

CXCR2 = target: T1, CXCR2 (Homo sapiens, UniProt P25025); assay: CXCR2 membrane level by flow cytometry after CXCL8 stimulation in HuVEC; format: cell-based; settings: 2.5 μM, CXCL8 25 ng/ml 1 h
T1 construct: endogenous in cells; host or cells: HuVEC (healthy endothelial cells)
Procedure: A: HuVEC were stimulated with 25 ng/ml CXCL8 during 1 h. Membrane-associated CXCR2 protein levels were quantified by flow cytometry;
CXCR2 measurement: After stimulation, cells were washed with PBS and were stained with the CXCR2-PE antibody (Miltenyi) for 30 min at room temperature. Fluorescence was measured by using the FL2 (PE) channels of a fluorescence-activated cell sorter apparatus (Calibur cytometer).
Since CXCR2 is internalized in endothelial cells when activated by CXCL-8, the effect of compound #1 has been investigated on CXCR2 recycling on HuVEC cells.

DAOY and HD-MB03 cells = assay: Proliferation test, medulloblastoma cells; format: cell-based; settings: 1 μM, cell counts days 1 to 8, vs DMSO
Procedure: FIG. 7: Inhibition of proliferation of medulloblastoma cells by compound #1. Cells were treated or not with 1 μM compound #1 for the indicated days. Cells were counted at the indicated days. * p<0.05; ** p<0.01; *** p<0.001.
1500 DAOY and HD-MB03 cells were seeded in a 6-well plate with or without treatment (1 μM of compound #1 or DMSO as control “CONT”), at 37° C. in a 5% CO2 incubator. Cells were dissociated using trypsone 1X-EDTA (Gibco® Life Technologies) and were counted with Coulter Beckman® counter (Villepinte) at days 1, 4, 6, 7, and 8. Each assay was performed in triplicate.

MolM14 = assay: XTT cell viability assay, MolM14; format: cell-based, human; settings: Homo sapiens, MOLM-14; XTT assay (48 h); standard deviation of 10%; read-out: EC50 (μM) AML MolM14
Procedure: as §1, §2

786R = assay: XTT cell viability assay, 786R (sunitinib-resistant); format: cell-based, human; settings: for EC50: XTT assay (48 h), sunitinib-resistant, standard deviation of 10%, read-out: EC50 (μM) Kidney 786R
Procedure: A, B: Naive (786-O, A), and sunitinib-resistant (786-R, B) 786-O cells, were treated with compound #1 or sunitinib (1 to 10 μM) for 48 hr. Cell viability was measured by XTT assays;
D, E: 786-O (D), 786-R (E), were treated with 2.5 μM compound #1 or 2.5 μM sunitinib for 24 h to 96 h. The cells metabolism was measured by XTT assay;
as §1, §2

786-O and 786-R cells = assay: FACS analysis of death markers, sunitinib-sensitive and -resistant cells; format: cell-based, human; settings: 2.5 μM, 48 h, 786 and 786-R
Procedure: C: 786 and 786-R cells were treated with 2.5 μM compound #1 for 48 h. Cells were stained with the PI/annexin-V-fluo staining kit according to the manufacturer's indications. Histograms show both annexin-V^+/PI^− cells (blue bars) and annexin-V^+/PI^+ cells (red bars);
Apoptosis analysis: After stimulation, cells were washed with ice-cold PBS and were stained with the annexin-V-fluos staining kit (Roche, Meylan, France) according to the manufacturer's procedure. Fluorescence was measured by using the FL2 (AV) and FL3 (propidium iodide, PI) channels of a fluorescence-activated cell sorter apparatus (Calibur cytometer).

A498 cells = assay: Tumor xenograft experiment (ectopic model of RCC); format: in vivo, mice
Procedure: Cells were lysed in buffer containing 3% SDS, 10% glycerol and 0.825 mM Na2HPO4. 30 to 50 μg of proteins were separated on 10% SDS-PAGE, transferred onto a PVDF membrane (Immobilon, Millipore, France) and then exposed to the appropriate antibodies. Proteins were visualized with the ECL system using horseradish peroxidase-conjugated anti-rabbit or anti-mouse secondary antibodies.
One microgram of total RNA was used for the reverse transcription, using the QuantiTect Reverse Transcription kit (QIAGEN, Hilden, Germany), with a blend of oligo (dT) and random primers to prime first-strand synthesis. SYBR master mix plus (Eurogentec, Liege, Belgium) was used for qPCR. The mRNA level was normalized to 36B4 mRNA.
Ectopic model of RCC: seven million A498 cells were injected subcutaneously into the flank of 5-week-old nude (nu/nu) female mice (Janvier, France). The tumor volume was determined with a caliper (v=L*1^2*0.5). When the tumor reached 100 mm^3, mice were treated five a week for 4 weeks, by gavage with placebo (dextrose water vehicle) or compound #1 (50 mg/kg). This study was carried out in strict accordance with the recommendations in the Guide for the Care and Use of Laboratory Animals. Our experiments were approved by the “Comite national institutionnel d′éthique pour l'animal de laboratoire (CIEPAL)”
Sections from blocks of formol-fixed and paraffin-embedded tumors were examined for immunostaining. Sections were incubated with monoclonal anti-Ki67 (clone MIB1, DAKO, Ready to use) antibodies. Biotinylated secondary antibody (DAKO) was applied and binding was detected with the substrate diaminobenzidine against a hematoxylin counterstain.
Mice were xenografted with the highly aggressive ccRCC cells (A498), which form highly vascularized tumors.

T1 sequence (P25025 whole entry): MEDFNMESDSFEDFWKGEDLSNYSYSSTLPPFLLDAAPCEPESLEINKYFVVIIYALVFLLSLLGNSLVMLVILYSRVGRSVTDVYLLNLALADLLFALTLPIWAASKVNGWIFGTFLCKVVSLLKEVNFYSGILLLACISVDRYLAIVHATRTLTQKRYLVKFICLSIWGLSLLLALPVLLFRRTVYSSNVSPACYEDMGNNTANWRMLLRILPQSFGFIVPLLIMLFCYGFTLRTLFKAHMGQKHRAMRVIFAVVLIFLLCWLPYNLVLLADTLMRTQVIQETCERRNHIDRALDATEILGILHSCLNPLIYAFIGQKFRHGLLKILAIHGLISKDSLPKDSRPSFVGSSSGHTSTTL

For `O=C(Nc1cccc(Cl)c1)Nc1nc2ccc([N+](=O)[O-])cc2s1` [Compound #1, 1-(3-chlorophenyl)-3-(6-nitrobenzo[d]thiazol-2-yl)urea], the EC50 (MolM13) was 7 µM, the EC50 (K562) was 2 µM and the “CXCL-8-dependent internalization of CXCR2” value (CXCR2) was “prevents the CXCL-8-dependent internalization of CXCR2”. The “proliferation of DAOY and HD-MB03 cells” value (DAOY and HD-MB03 cells) was “significatively reduces the proliferation”, the EC50 (MolM14) was 4 µM and the “time of treatment to total inhibition of proliferation” value (786R; 786-R cells, 2.5 μM, XTT 24 h to 96 h) was about 100 h. The EC50 (786R; Homo sapiens, 48 h) was 2 µM, the EC50 (786R) was 2.5 µM and the “death markers (annexin-V/PI) in sensitive and resistant cells” value (786-O and 786-R cells) was “kills in a similar way sensitive and resistant”. For the same compound, the “reduction of the tumor weight” value (A498 cells; A498 xenograft, 50 mg/kg gavage, end of experiment) was “more than 35%”, the “reduction of tumor volume” value (A498 cells; A498 xenograft, 50 mg/kg gavage, end of experiment (day 70)) was “more than 65%” and the “mRNA level of CXCL5 in tumors” value (A498 cells; human, qPCR) was “significantly decreased”. For the same compound, the “mRNA level of CXCL7 in tumors” value (A498 cells; human, qPCR) was “significantly decreased”, the “mRNA level of CXCL8 in tumors” value (A498 cells; human, qPCR) was “significantly decreased” and the “mRNA level of VEGFA in tumors” value (A498 cells; human, qPCR) was “not those of VEGFA”. For the same compound, the “AKT phosphorylation in tumor lysates” value (A498 cells; immunoblotting) was “inhibits AKT”, the “ERK phosphorylation in tumor lysates” value (A498 cells; immunoblotting) was “not ERK” and the “weight of the animals” value (A498 cells; treated group, day 70) was “No weight loss”. The “labelling of the proliferation marker Ki-67” value (A498 cells; tumor immunostaining) was “significantly decreases” and the “lowering of mRNA levels of murine CD31” value (A498 cells; tumors, qPCR) was “more than 75%”.
